The subject of data set [1] is hydrochloric acid induced-ulcer. Put plainly: Effect on hydrochloric acid induced-ulcer (Pharmacological Test 2). As to conditions: 1 h before 0.6N HCl. Format: in vivo, Male Wistar rats. The procedure: Effect on hydrochloric acid induced-ulcer:
(§1) Male Wistar rats (weighing 156 to 189 g) were divided into groups, 5 to 8 rats in each group. The animals were fasted for 24 hours, and 5 ml/kg of 0.6N hydrochloric acid was given orally. The animals were sacrificed 1 hour later. The stomach was removed, and 1% formalin was injected into the removed stomach to fix the stomach. The stomach was then incised open along the greater curvature. The length (mm) of gastric lesions was measured, summed and used as an ulcer index. The compound to be tested was dissolved in water, and the solution was orally given to animals at varying doses 1 hour before the injection of hydrochloric acid.

Data set [2] concerns gastric acid secretion. Kind of data set: Inhibitory activity on gastric acid secretion, comparison with Compound A (Pharmacological Test 3). Type of data set: in vivo, Male Wistar rats. Conditions: 30 mg/kg; for Percent inhibition on gastric acid secretion: Table 7, intraduodenal as in Test 1. As to the method:
(§2) Male Wistar rats (weighing 172 to 200 g) were divided into groups, 7 to 8 rats in each group. The animals were fasted for 24 hours. Under ether anesthesia, the abdomen was incised and the pylorus was ligated according to the method of Shay et al. [Gastroenterology, 1, 420 (1963)]. The animals were sacrificed 4 hours later, and the stomach was removed to collect gastric juice, which was then centrifuged (3000 r.p.m., 10 minutes). The volume of gastric juice and the acidity were measured. The compound to be tested was dissolved in water, and the solution was intraduodenally given to animals at varying doses immediately after the ligation of the pylorus.
Inhibitory activity on gastric acid secretion was measured in the same manner as in Pharmacological Test 1 with use of Compound 2 below as the present compound and, for comparison, Compound A below of Example 37c in JP-A-116277/1984.

For data set [3], the system named is gastric acid secretion. Kind of data set: Inhibitory activity on gastric acid secretion (pylorus ligation, Pharmacological Test 1). Format: in vivo, Male Wistar rats. The procedure: Inhibitory activity on gastric acid secretion:
as §2

For data set [4], the system named is hydrochloric acid induced-ulcer. Kind of data set: Effect on hydrochloric acid induced-ulcer, comparison with Compound A (Pharmacological Test 4). Type of data set: in vivo, Male Wistar rats. Conditions: 30 mg/kg; for Percent inhibition of effect on hydrochloric acid induced-ulcer: Table 8, oral as in Test 2. The procedure: as §1
Data set [5] can be described thus: Hygroscopicity (remark in Table 1). Type of data set: physicochemical.
The mark [6] stands for this setting: Table 3, 10 mg/kg intraduodenal, 4 h, control 2.5 ± 0.5.
[7] abbreviates: Table 3, 10 mg/kg intraduodenal, 4 h, control 65.2 ± 10.7.
Setting [8] is: Table 3, 10 mg/kg intraduodenal, 4 h, control 162.3 ± 41.6.

Results on five compounds are retold here after patent US5401739A, “Benzothiadiazine derivatives” (Taiho Pharmaceutical Co. Ltd., priority 1991, dated 1995).

With `COc1ccc(CN(CCCOc2cccc(CN3CCCCC3)c2)C2=NS(=O)(=O)c3ccccc3N2C)cc1` [Compound 2, 3-[N-[3-[3-(piperidinomethyl)phenoxy]propyl]-4'-methoxybenzylamino]-4-methyl-1,2,4-benzothiadiazine-1,1-dioxide], the “Percent inhibition (ulcer index)” value was 33.6% in data set [1] (Table 4, 3 mg/kg oral); 55.8% in data set [1] (Table 4, 10 mg/kg oral); 85.0% in data set [1] (Table 4, 30 mg/kg oral); 94.5% in data set [1] (Table 4, 100 mg/kg oral). Moreover, the Ulcer index in data set [1] (Table 4, 3 mg/kg oral, control 72.7 ± 23.7) amounted to 48.3 ± 17.8 mm; in data set [1] (Table 4, 10 mg/kg oral, control 72.7 ± 23.7), 32.1 ± 24.9 mm; in data set [1] (Table 4, 30 mg/kg oral, control 72.7 ± 23.7) it was 10.9 ± 17.2 mm; in data set [1] (Table 4, 100 mg/kg oral, control 72.7 ± 23.7), 4.0 ± 6.1 mm. The “Percent inhibition on gastric acid secretion” value in the data set on gastric acid secretion [2] is given as 95.1%. Moreover, in the data set with gastric acid secretion [2] (in words, vs Compound A), the “inhibitory activity on gastric acid secretion, compared with Compound A” value is listed as “almost equal to Compound A”. In addition, the Acidity in the data set on gastric acid secretion [3] (Table 2, 3 mg/kg intraduodenal, 4 h, control 78.4 ± 12.0) came to 64.8 ± 15.1 μ Eq/ml; in the data set on gastric acid secretion [3] (Table 2, 10 mg/kg intraduodenal, 4 h, control 78.4 ± 12.0), 54.9 ± 16.1 μ Eq/ml; in the data set with gastric acid secretion [3] (Table 2, 30 mg/kg intraduodenal, 4 h, control 78.4 ± 12.0), 30.9 ± 16.7 μ Eq/ml. Moreover, the Total acid output with gastric acid secretion [3] (Table 2, 3 mg/kg intraduodenal, 4 h, control 391.6 ± 161.6) is reported as 247.8 ± 96.9 μ Eq; in the data set with gastric acid secretion [3] (Table 2, 10 mg/kg intraduodenal, 4 h, control 391.6 ± 161.6), 205.9 ± 165.0 μ Eq; in the data set with gastric acid secretion [3] (Table 2, 30 mg/kg intraduodenal, 4 h, control 391.6 ± 161.6) it was 85.3 ± 92.7 μ Eq. Also, the “Volume of gastric juice” value is 3.7 ± 0.9 mL with gastric acid secretion [3] (Table 2, 3 mg/kg intraduodenal, 4 h after pylorus ligation, control 4.8 ± 1.5); 3.4 ± 1.8 mL with gastric acid secretion [3] (Table 2, 10 mg/kg intraduodenal, 4 h, control 4.8 ± 1.5); 2.4 ± 1.4 mL in the data set on gastric acid secretion [3] (Table 2, 30 mg/kg intraduodenal, 4 h, control 4.8 ± 1.5). Also, the “Percent inhibition of effect on hydrochloric acid induced-ulcer” value in data set [4] was 86.9%. Further, the “effect on hydrochloric acid induced-ulcer, compared with Compound A” value in data set [4] (in words, vs Compound A) was “extremely excellent than Compound A”.
Turning to `CN1C(NC/C=C\COc2cccc(CN3CCCCC3)c2)=NS(=O)(=O)c2ccccc21` [Compound 22, 3-[N-[4-[3-(piperidinomethyl)phenoxy]-(cis) 2-butenyl]amino]-4-methyl-1,2,4-benzothiadiazine-1,1-dioxide], the “Percent inhibition (ulcer index)” value in data set [1] (Table 5, 10 mg/kg oral) is reported as 16.5%; in data set [1] (Table 5, 30 mg/kg oral), 35.6%; in data set [1] (Table 5, 100 mg/kg oral), 48.4%. Moreover, the Ulcer index in data set [1] (Table 5, 10 mg/kg oral, control 61.2 ± 25.4) is 51.1 ± 20.4 mm; in data set [1] (Table 5, 30 mg/kg oral, control 61.2 ± 25.4), 39.4 ± 13.2 mm; in data set [1] (Table 5, 100 mg/kg oral, control 61.2 ± 25.4) it was 31.6 ± 5.0 mm. For the same compound, the “Volume of gastric juice” value in the data set with gastric acid secretion [3] (Table 3, 3 mg/kg intraduodenal, 4 h, control 2.5 ± 0.5) was found to be 2.0 ± 0.6 mL; in the data set with gastric acid secretion [3] (setting [6]) it was 2.3 ± 1.0 mL. Moreover, the Acidity with gastric acid secretion [3] (Table 3, 3 mg/kg intraduodenal, 4 h, control 65.2 ± 10.7) was 8.6 ± 8.2 μ Eq/ml; with gastric acid secretion [3] (setting [7]), 2.1 ± 3.9 μ Eq/ml. Also, the Total acid output in the data set on gastric acid secretion [3] (Table 3, 3 mg/kg intraduodenal, 4 h, control 162.3 ± 41.6) is listed as 15.5 ± 9.6 μ Eq; in the data set with gastric acid secretion [3] (setting [8]) it was 4.5 ± 9.4 μ Eq.
`CCCCN1C(NC/C=C\COc2cccc(CN3CCCCC3)c2)=NS(=O)(=O)c2ccccc21` [Compound 28]: the “Percent inhibition (ulcer index)” value was 22.6% in data set [1] (Table 6, 10 mg/kg oral); 62.8% in data set [1] (Table 6, 30 mg/kg oral); 96.6% in data set [1] (Table 6, 100 mg/kg oral). Moreover, the Ulcer index in data set [1] (Table 6, 10 mg/kg oral, control 150.0 ± 35.2) amounted to 116.1 ± 34.9 mm; in data set [1] (Table 6, 30 mg/kg oral, control 150.0 ± 35.2), 55.8 ± 32.4 mm; in data set [1] (Table 6, 100 mg/kg oral, control 150.0 ± 35.2) it was 5.1 ± 4.1 mm. Moreover, the “Volume of gastric juice” value worked out at 2.2 ± 0.8 mL with gastric acid secretion [3] (setting [6]); 1.5 ± 0.5 mL in the data set on gastric acid secretion [3] (Table 3, 30 mg/kg intraduodenal, 4 h, control 2.5 ± 0.5); 1.1 ± 0.5 mL in the data set with gastric acid secretion [3] (Table 3, 100 mg/kg intraduodenal, 4 h, control 2.5 ± 0.5). The Acidity in the data set with gastric acid secretion [3] (setting [7]) stood at 59.2 ± 12.4 μ Eq/ml; in the data set with gastric acid secretion [3] (Table 3, 30 mg/kg intraduodenal, 4 h, control 65.2 ± 10.7), 32.0 ± 14.4 μ Eq/ml; in the data set with gastric acid secretion [3] (Table 3, 100 mg/kg intraduodenal, 4 h, control 65.2 ± 10.7), 4.9 ± 8.2 μ Eq/ml. The Total acid output is recorded as 133.3 ± 69.0 μ Eq in the data set with gastric acid secretion [3] (setting [8]); 53.6 ± 32.9 μ Eq with gastric acid secretion [3] (Table 3, 30 mg/kg intraduodenal, 4 h, control 162.3 ± 41.6); 4.6 ± 7.1 μ Eq in the data set on gastric acid secretion [3] (Table 3, 100 mg/kg intraduodenal, 4 h, control 162.3 ± 41.6).
Regarding `COc1ccc2c(c1)N(C)C(NC/C=C\COc1cccc(CN3CCCCC3)c1)=NS2(=O)=O` [Compound 29, 3-[N-[4-[3-(piperidinomethyl)phenoxy]-(cis) 2-butenyl]amino]-4-methyl-6-methoxy-1,2,4-benzothiadiazine-1,1-dioxide], the Hygroscopicity entry in data set [5] was “Hygroscopic”.
For `CN1C(NCCCOc2cccc(CN3CCCCC3)c2)=NS(=O)(=O)c2ccccc21` [Compound A, reference compound], the “Percent inhibition on gastric acid secretion” value in the data set on gastric acid secretion [2] is 96.2%. The “Percent inhibition of effect on hydrochloric acid induced-ulcer” value in data set [4] is reported as 59.4%.
